Reference: US12059405B1, “3-(2,4,5-tris(4-chlorophenyl)-1H-imidazol-1-yl) propanoic acid as an antimicrobial compound” (KING FAISAL UNIVERSITY, priority 2023, dated 2024)

Columns and labels:
Format in all cases: cell-based
Bacillus cereus = assay: Agar plate disc-diffusion, antibacterial, Bacillus cereus; conditions: nutrient agar, 37° C., 48 hours, DMSO control zone subtracted
Protocol: (§1) The agar plate disc-diffusion method was applied. […] The discs were then placed onto the surface of agar plates (nutrient agar for bacteria and Sabouraud's dextrose agar for fungi) seeded with the test organism. Each plate contained 15 mL of the agar medium, previously seeded with 0.2 mL of the broth culture of each organism pregrown for 18 hours. The plates were incubated at 37° C. for 48 hours, and 72 hours for fungi. The inhibition zones was measured in mm. Discs impregnated with DMSO were used as a control, and its inhibition zone was subtracted from the tested compound actual inhibition zone.

Staphylococcus aureus = assay: Agar plate disc-diffusion, antibacterial, Staphylococcus aureus; conditions: nutrient agar, 37° C., 48 hours, DMSO control zone subtracted
Protocol: as §1

Pseudomonas aeruginosa = assay: Agar plate disc-diffusion, antibacterial, Pseudomonas aeruginosa; conditions: nutrient agar, 37° C., 48 hours, DMSO control zone subtracted
Protocol: as §1

Escherichia coli = assay: Agar plate disc-diffusion, antibacterial, Escherichia coli; conditions: nutrient agar, 37° C., 48 hours, DMSO control zone subtracted
Protocol: as §1

Aspergillus flavus = assay: Agar plate disc-diffusion, antifungal, Aspergillus flavus; conditions: Sabouraud's dextrose agar, 37° C., 72 hours, DMSO control zone subtracted
Protocol: as §1

[1] = test system: Chrysosporium keratinophilum; assay: Agar plate disc-diffusion, antifungal, Chrysosporium keratinophilum; conditions: Sabouraud's dextrose agar, 37° C., 72 hours, DMSO control zone subtracted
Protocol: as §1

[2] = A = concentration of comp. = 10,000 μL
[3] = B = concentration of comp. = 30,000 μL
[4] = C = concentration of comp. = 50,000 μL

O=C(O)CCn1c(-c2ccc(Cl)cc2)nc(-c2ccc(Cl)cc2)c1-c1ccc(Cl)cc1 [V, 3-(2,4,5-tris(4-chlorophenyl)-1H-imidazol-1-yl)propanoic acid]
inhibition zone, Bacillus Cereus, A (Bacillus cereus; [2]): 21 mm | inhibition zone, Bacillus Cereus, B (Bacillus cereus; [3]): 29 mm | inhibition zone, Bacillus Cereus, C (Bacillus cereus; [4]): 38 mm | inhibition zone, Staphylococcus aureus, A (Staphylococcus aureus; [2]): 19 mm | inhibition zone, Staphylococcus aureus, B (Staphylococcus aureus; [3]): 23 mm | inhibition zone, Staphylococcus aureus, C (Staphylococcus aureus; [4]): 36 mm | inhibition zone, Pseudomonas aeruginosa, A (Pseudomonas aeruginosa; [2]): 25 mm | inhibition zone, Pseudomonas aeruginosa, B (Pseudomonas aeruginosa; [3]): 26 mm | inhibition zone, Pseudomonas aeruginosa, C (Pseudomonas aeruginosa; [4]): 37 mm | inhibition zone, Escherichia coli, A (Escherichia coli; [2]): 27 mm | inhibition zone, Escherichia coli, B (Escherichia coli; [3]): 36 mm | inhibition zone, Escherichia coli, C (Escherichia coli; [4]): 48 mm | inhibition zone, Aspergillus flavus, A (Aspergillus flavus; [2]): 19 mm | inhibition zone, Aspergillus flavus, B (Aspergillus flavus; [3]): 24 mm | inhibition zone, Aspergillus flavus, C (Aspergillus flavus; [4]): 32 mm | inhibition zone, Chrysosporium keratinophilum, A [1, 2]: 25 mm | inhibition zone, Chrysosporium keratinophilum, B [1, 3]: 26 mm | inhibition zone, Chrysosporium keratinophilum, C [1, 4]: 45 mm
